Assay results reported in paper PMC6389993, “Quercetin and its metabolite isorhamnetin promote glucose uptake through different signalling pathways in myotubes” (Scientific Reports, 2019).

Columns and labels:
JAK2 = test: Phosphorylation of JAK2 in L6 myotubes (western blot); format: cell-based, rat; settings: 15 min; for phosphorylation of JAK2: higher concentrations (1 μM and 10 μM)
Protocol: (§1) For in vitro cell culture experiments, after serum starvation for 18 h, myotubes were treated with various concentrations of quercetin or isorhamnetin (0.1–10 nM) for 15 min; DMSO (final 0.1%) was used as a vehicle control. As positive controls, 100 nM insulin, 1 mM AICAR, 10 nM leptin, or 100 ng/mL IL-15 were used for insulin, AMPK, JAK2/STAT, or JAK3/STAT signalling pathways, respectively. Cells were treated with insulin or AICAR for 15 min, leptin for 60 min, or IL-15 for 24 h. Whole protein and plasma membrane fractions were prepared from myotubes, as previously described. For in vivo experiment, plasma membrane fraction and tissue lysate of soleus muscle were prepared.
(§2) Translocation of GLUT4 to the plasma membrane, as well as expression and phosphorylation levels of GLUT4-related regulators were estimated by western blot analysis. Briefly, equal amounts of proteins were separated by sodium dodecyl sulfate-polyacrylamide gel electrophoresis (SDS-PAGE). Separated proteins were transferred onto a polyvinylidene fluoride membrane and nonspecific binding sites were blocked using either Blocking One (to detect unphosphorylated proteins) or Blocking One-P (to detect phosphoproteins). […] Specific immune complexes were developed using ImmunoStar® LD and detected with an ATTO Light-Capture II Western Blotting Detection System. Individual band density was calculated by ImageJ and normalized to the control. […]
59 complexes were developed using ImmunoStar® LD and detected with an ATTO Light-Capture
60 Ⅱ Western Blotting Detection System. Individual band density was calculated by ImageJ and […]

IR = test: Phosphorylation of insulin receptor in L6 myotubes (immunoprecipitation, western blot); format: cell-based, rat; settings: 0.1–10 nM, 15 min, all concentrations tested
Protocol: as §1
as §2, with “(SDS-PAGE).” for “(SDS-PAGE). Separated proteins were transferred onto a polyvinylidene fluoride membrane and nonspecific binding sites were blocked using either Blocking One (to detect unphosphorylated proteins) or Blocking One-P (to detect phosphoproteins).”

Compound | phosphorylation of JAK2 (JAK2) | JAK2 phosphorylation (JAK2; physiological concentration range (0.1–10 nM)) | phosphorylation of insulin receptors (IRs) (IR)
COc1cc(-c2oc3cc(O)cc(O)c3c(=O)c2O)ccc1O [isorhamnetin, 3′-O-methyl quercetin] | induced phosphorylation of JAK2 | effectively promoted | failed to activate
O=c1c(O)c(-c2ccc(O)c(O)c2)oc2cc(O)cc(O)c12 [quercetin, 3,3′,4′,5,7-pentahydroxy flavone] | induced phosphorylation of JAK2 |  | failed to activate
